In series [1] the test system is HCT-116. In words: Growth inhibition of human HCT116 cells at 10 uM after 72 hrs by MTT assay. In kind it is functional. The note with it: HCT-116, 72 h, read-out: GI. (In general: Tetrazolium assays rely on reduction of a dye to a coloured formazan, in cell work by metabolically active cells.)
In another series the target is T1, Aurora kinase A (Homo sapiens, UniProt O14965).
T1 sequence (O14965 whole entry): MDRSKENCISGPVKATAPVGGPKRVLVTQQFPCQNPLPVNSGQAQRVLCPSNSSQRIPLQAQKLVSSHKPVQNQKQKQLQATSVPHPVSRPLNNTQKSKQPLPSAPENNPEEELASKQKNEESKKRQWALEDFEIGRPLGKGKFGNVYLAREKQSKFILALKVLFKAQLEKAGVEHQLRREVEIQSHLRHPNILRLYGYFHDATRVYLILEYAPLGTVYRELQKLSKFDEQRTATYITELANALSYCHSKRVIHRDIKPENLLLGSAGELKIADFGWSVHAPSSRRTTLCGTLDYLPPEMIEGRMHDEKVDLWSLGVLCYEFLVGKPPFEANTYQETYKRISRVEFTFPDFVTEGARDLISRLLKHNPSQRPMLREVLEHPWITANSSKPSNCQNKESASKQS

Series [2] deals with Voltage-gated inwardly rectifying potassium channel KCNH2 (Homo sapiens, UniProt Q12809). In words: Inhibition of human ERG at 10 uM. The note with it: 10 µM.
A short description of series [3]: Oral bioavailability in BALB/c mouse at 5 mg/kg. The note with it: in vivo. In kind it is ADME, organism-based.
Series [4] can be described thus: Permeability by PAMPA assay. The format is ADME. The note with it: read-out: permeability. On the technique in general: In PAMPA a lipid-coated filter parts donor from acceptor wells.
Series [5] is described as follows: Aqueous solubility of the compound. The format is physicochemical. The note with it: buffer.
The test system of series [6] is HCT-116. In words: Growth inhibition of human HCT116 cells after 72 hrs by MTT assay. In kind it is functional. The note with it: HCT-116, 72 h.
Series [7] can be described thus: Metabolic stability in CD1 mouse liver microsomes assessed as compound remaining at 10 uM after 30 mins by LC-MS/MS analysis. The format is ADME, Microsome. Conditions: read-out: Stability; call rule not given here. On the technique in general: Microsomes from liver hold many membrane-bound enzymes, among them those of drug oxidation.

The term IC50 denotes the concentration needed to halve the response being measured. A high value points to lower potency. As a reminder, the bioavailability is dose-corrected exposure relative to a reference, in per cent. A higher bioavailability goes with good availability. The solubility is the dissolved amount per volume that the medium holds. A lower solubility goes with little dissolved substance. Broadly, the GI50 is the concentration giving 50% growth inhibition. The low end stands for greater sensitivity of the cells, the high end for lower sensitivity of the cells.

Voltage-gated inwardly rectifying potassium channel KCNH2, sequence (Q12809 whole entry): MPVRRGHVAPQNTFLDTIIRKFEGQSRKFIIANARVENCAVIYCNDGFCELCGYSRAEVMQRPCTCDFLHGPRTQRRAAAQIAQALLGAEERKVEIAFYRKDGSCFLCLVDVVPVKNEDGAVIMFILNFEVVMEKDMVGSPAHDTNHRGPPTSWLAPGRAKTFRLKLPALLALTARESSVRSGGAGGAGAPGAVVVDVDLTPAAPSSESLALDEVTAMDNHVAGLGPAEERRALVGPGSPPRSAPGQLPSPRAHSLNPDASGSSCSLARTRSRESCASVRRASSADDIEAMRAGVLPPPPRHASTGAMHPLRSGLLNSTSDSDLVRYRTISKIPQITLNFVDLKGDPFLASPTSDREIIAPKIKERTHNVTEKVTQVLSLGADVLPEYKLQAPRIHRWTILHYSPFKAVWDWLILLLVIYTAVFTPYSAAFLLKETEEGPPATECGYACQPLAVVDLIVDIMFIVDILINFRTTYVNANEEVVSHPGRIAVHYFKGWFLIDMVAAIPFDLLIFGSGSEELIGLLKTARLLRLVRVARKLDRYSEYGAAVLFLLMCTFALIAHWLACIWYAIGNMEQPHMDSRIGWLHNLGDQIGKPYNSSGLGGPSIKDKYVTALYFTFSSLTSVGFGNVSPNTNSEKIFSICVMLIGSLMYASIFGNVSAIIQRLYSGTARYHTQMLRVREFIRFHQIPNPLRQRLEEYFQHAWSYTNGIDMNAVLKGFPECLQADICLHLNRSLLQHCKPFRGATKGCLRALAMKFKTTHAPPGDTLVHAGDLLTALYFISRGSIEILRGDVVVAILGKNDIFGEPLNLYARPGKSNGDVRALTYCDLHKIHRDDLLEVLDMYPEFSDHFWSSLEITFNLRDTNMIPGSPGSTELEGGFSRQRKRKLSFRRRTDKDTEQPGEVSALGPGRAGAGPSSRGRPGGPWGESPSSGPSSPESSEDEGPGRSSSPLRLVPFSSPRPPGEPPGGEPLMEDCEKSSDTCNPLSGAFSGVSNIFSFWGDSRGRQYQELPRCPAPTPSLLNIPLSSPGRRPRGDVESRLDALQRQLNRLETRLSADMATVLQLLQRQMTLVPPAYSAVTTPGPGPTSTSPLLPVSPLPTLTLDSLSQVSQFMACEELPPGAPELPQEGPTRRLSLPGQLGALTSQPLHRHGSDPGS
Description for Aurora kinase A: Inhibition of human recombinant Aurora A expressed in baculovirus system

Consider `O=C(CN1CCN(c2c(Br)cnc3[nH]cnc23)CC1)Nc1nccs1`, for which the inhibition of growth at 10 µM with HCT-116 [1] came to 40%. In addition, the IC50 on Aurora kinase A is 517 nM.
For `COc1ccc(-c2nc3c(N4CCN(Cc5cc(C)on5)CC4)c(Br)cnc3[nH]2)cc1`, the “inhibition (INH)” value in series [2] is “Not Active”. The same compound displayed a bioavailability in series [3] of 23%. In series [4], the Papp is 6 ×10⁻⁶ cm/s. In series [5], this compound registered a solubility of less than 10 µg/mL. In addition, the GI50 in the series with HCT-116 [6] is 540 nM. Further, the remaining at 0.5 h, 10 µM in series [7] is greater than 50%. For the same compound, 17 nM corresponded to half-maximal inhibition at Aurora kinase A (IC50).
